In paper PMC8414367, “(E)-7-Ethylidene-lithocholic Acid (7-ELCA) Is a Potent Dual Farnesoid X Receptor (FXR) Antagonist and GPBAR1 Agonist Inhibiting FXR-Induced Gene Expression in Hepatocytes and Stimulating Glucagon-like Peptide-1 Secretion From Enteroendocrine Cells” (Frontiers in Pharmacology, 2021):
Read-outs that look alike come from different tables or passages of the source.

How the values were obtained:
human FXR [1] = biological target: T1, human FXR (Homo sapiens, UniProt Q96RI1); test: FXR luciferase reporter gene assay (FXRE-luc) in HepG2 cells, antagonistic mode; assay type: cell-based; settings: for remaining activity at 10 µM / remaining activity at 40 µM: HepG2; for remaining activity at 10 µM: tested compound 10 µM
T1 sequence (Q96RI1 1-486): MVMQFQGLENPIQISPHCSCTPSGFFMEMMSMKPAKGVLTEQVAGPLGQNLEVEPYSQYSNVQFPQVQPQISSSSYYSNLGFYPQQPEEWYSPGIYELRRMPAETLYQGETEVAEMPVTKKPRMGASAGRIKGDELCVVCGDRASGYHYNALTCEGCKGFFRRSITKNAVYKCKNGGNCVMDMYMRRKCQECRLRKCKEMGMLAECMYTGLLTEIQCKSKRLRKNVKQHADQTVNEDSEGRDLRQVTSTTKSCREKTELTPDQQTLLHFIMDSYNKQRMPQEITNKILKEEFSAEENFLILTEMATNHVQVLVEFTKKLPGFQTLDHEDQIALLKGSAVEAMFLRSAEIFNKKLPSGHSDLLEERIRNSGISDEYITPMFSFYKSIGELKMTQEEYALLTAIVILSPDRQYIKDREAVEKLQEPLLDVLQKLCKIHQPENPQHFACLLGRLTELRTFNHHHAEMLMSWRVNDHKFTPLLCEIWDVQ
T1 sequence (P19793 1-462 partner): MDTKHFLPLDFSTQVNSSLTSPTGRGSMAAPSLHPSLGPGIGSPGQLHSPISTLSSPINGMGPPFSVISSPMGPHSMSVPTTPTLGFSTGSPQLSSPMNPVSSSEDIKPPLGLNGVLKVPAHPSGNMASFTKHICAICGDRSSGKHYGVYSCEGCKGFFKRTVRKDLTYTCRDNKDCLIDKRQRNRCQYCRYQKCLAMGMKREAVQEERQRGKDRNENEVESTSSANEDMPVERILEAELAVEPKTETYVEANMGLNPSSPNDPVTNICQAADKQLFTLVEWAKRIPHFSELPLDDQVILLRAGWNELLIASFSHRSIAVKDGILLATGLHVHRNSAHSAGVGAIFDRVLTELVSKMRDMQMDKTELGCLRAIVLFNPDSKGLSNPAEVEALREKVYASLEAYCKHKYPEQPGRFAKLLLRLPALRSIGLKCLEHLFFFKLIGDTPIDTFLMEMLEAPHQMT

human FXR [2] = biological target: T1, human FXR; test: FXR luciferase reporter gene assay (FXRE-luc) in HepG2 cells, agonistic mode; assay type: cell-based; settings: 10 µM, 24 h, compound alone
Description: FIGURE 3 Interaction of 7-alkylated derivatives of CDCA and 7-ELCA with human FXR in luciferase reporter gene assays. HepG2 cells were transiently co-transfected with the luciferase FXRE-luc construct and with expression pSG5-hFXR, pSG5-hRXRα, and pRL-TK vectors. Cells were treated with indicated concentrations for 24 h alone (A), an agonistic mode) or with 1 µM OCA as an FXR agonist (B–F), an antagonistic mode). […] IC50 values were calculated using concentration-response curves nonlinear fitting in GraphPad software.

GPBAR1 = biological target: T2, GPBAR1 (Homo sapiens, UniProt Q8TDU6); test: GPBAR1 CRE-luc luciferase reporter assay in HepG2 cells; assay type: cell-based; settings: 10 µM, 5 h, LCA 10 µM set as 100%
T2 construct: host or cells: HepG2
T2 sequence (Q8TDU6 1-330): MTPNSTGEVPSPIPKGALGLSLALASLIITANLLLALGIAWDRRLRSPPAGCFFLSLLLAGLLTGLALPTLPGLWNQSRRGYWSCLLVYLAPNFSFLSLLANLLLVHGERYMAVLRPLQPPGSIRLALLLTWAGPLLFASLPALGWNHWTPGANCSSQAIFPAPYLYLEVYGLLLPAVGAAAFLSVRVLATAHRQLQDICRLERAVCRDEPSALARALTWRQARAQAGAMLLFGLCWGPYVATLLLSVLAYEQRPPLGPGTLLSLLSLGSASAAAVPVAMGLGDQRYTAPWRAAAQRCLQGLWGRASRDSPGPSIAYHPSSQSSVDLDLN
Description: (C) Effects of LCA and 7-ELCA (both at 10 µM) on intracellular generation of cAMP in differentiated NCI-H716 cells after 30 min treatment. The increase in cAMP level (ΔcAMP) is presented as the difference between cAMP concertation in the treated sample after subtraction of the cAMP in the nontreated control sample. (D) Concentration-response curves for activation of GPBAR1 by LCA and 7-ELCA. EC50 values were calculated using nonlinear fitting of concentration-response curves. […] GLP-1 was normalized to protein concentration and GPBAR1 mRNA expression to GAPDH mRNA. Data are presented as a fold to control nontreated (NT) samples. Forskolin (FSK, 10 µM) was used as a GPBAR1-independent activator of cAMP production.

MTS viability assay [3] = assay type: cell-based, human; settings: human, vehicle = 100%
Description: (§1) The potential cytotoxicity of 7-alkylated chenodeoxycholic acid derivatives were assessed in different human (HepG2, HepaRG and Huh7) and murine (AML12) hepatocyte-derived cell lines. For this purpose, hepatic cells were treated at increasing concentration for 24h and analyzed by MTS viability assay.
(§2) Table S2. Cell viability was determined using the Cell Titer 96 Aqueous One Solution Cell Proliferation Assay (MTS assay) after treatment with test compounds for 24 h in four different hepatic cell lines. Vehicle (0.1% DMSO) and background (10% SDS; v/v, toxic control) controls of cell viability were set to be 100% and 0%, respectively.

HepG2 = test: MTS viability assay; assay type: cell-based, human; settings: Homo sapiens; HepG2, 24 h, MTS; read-out: IC50 (µM), cell viability
Description: as §1, §2

HepaRG = test: MTS viability assay; assay type: cell-based, human; settings: Homo sapiens, 24 h, MTS, read-out: IC50 (µM), cell viability
Description: as §1, §2

Huh7 = test: MTS viability assay; assay type: cell-based, human; settings: Homo sapiens, Huh-7; Huh7, 24 h, MTS; read-out: IC50 (µM), cell viability
Description: as §1, §2

MTS viability assay [4] = assay type: cell-based, murine; settings: mouse, AML12 cells; AML12, 24 h, vehicle = 100%
Description: as §1, §2

AML12 = test: MTS viability assay; assay type: cell-based, murine; settings: Mus musculus; AML12, 24 h, MTS; read-out: IC50 (µM), cell viability
Description: as §1, §2

various cell lines = test: MTS viability assay, summary over cell lines; assay type: cell-based; settings: 24 h, read-out: IC50, cellular viability
Description: as §1, §2

FXR [5] = test system: FXR; parameters: method as in Sun et al., 2018; settings: ref Sun et al., 2018; read-out: IC50, FXR antagonist; cited from earlier work
NCI-H716 cells = test: GLP-1 secretion (ELISA) in differentiated NCI-H716 cells; assay type: cell-based, human; settings: 10 µM, 2 h
[6] = test system: GPBAR1 mRNA, NCI-H716 cells; test: GPBAR1 mRNA expression in differentiated NCI-H716 cells; assay type: cell-based, human; settings: 10 µM, 2 h
Description: FIGURE 8 Effects of 7-alkylated derivatives of CDCA and 7-ELCA on the membrane receptor GPBAR1. […]. (B) CRE-luc activation depends on the presence of GPBAR1. (C) Effects of LCA and 7-ELCA (both at 10 µM) on intracellular generation of cAMP in differentiated NCI-H716 cells after 30 min treatment. The increase in cAMP level (ΔcAMP) is presented as the difference between cAMP concertation in the treated sample after subtraction of the cAMP in the nontreated control sample. (D) Concentration-response curves for activation of GPBAR1 by LCA and 7-ELCA. EC50 values were calculated using nonlinear fitting of concentration-response curves. […] (G) 7-ELCA (10 µM) increases GLP-1 secretion in siRNA control but not in siRNA Gpbar1 transfected GLUTag cells after 1 h treatment. GLP-1 was normalized to protein concentration and GPBAR1 mRNA expression to GAPDH mRNA. Data are presented as a fold to control nontreated (NT) samples. Forskolin (FSK, 10 µM) was used as a GPBAR1-independent activator of cAMP production.

FXR [7] = test system: FXR; parameters: method as in Li et al., 2013; Sayin et al., 2013; settings: co-activator assay, ref Li et al., 2013, Sayin et al., read-out: IC50, FXR antagonist; cited from earlier work
[8] = GW4064 1 µM, read-out: relative response (%) to the model FXR ligand activation (set to be 100%), GW4064 1 µM

**Q.** Which remaining activity at 10 µM (human FXR [1]; [8]) does the source give for `C[C@H](CCC(=O)O)[C@H]1CCC2C3C(CC[C@@]21C)[C@@]1(C)CC[C@@H](O)C[C@H]1C[C@]3(O)C1CC1` (stereo partly drawn) [2i, 3α,7α-Dihydroxy-7β-cyclopropyl-5β-cholan-24-oic acid] here?
**A.** 88.4 ± 4.2%

**Q.** What about the remaining activity at 40 µM (human FXR [1]; tested compound 40 µM, CDCA 20 µM, * = significant effect on cellular viability, read-out: relative response (%) to the model FXR ligand activation (set to be 100%), CDCA 20 µM) of the same compound?
**A.** 60 ± 5.8%

**Q.** What about the remaining activity at 40 µM (human FXR [1]; tested compound 40 µM, GW4064 1 µM, * = significant effect on cellular viability, read-out: relative response (%) to the model FXR ligand activation (set to be 100%), GW4064 1 µM) of the same compound?
**A.** 60.5 ± 5.2%

**Q.** And the “FXR activation, agonistic mode (in words)” value (human FXR [2])?
**A.** significant inhibition of the FXR basal activation

**Q.** And the “CRE-luc activation compared to LCA (in words)” value (GPBAR1)?
**A.** comparable activities to LCA

**Q.** What about the viability at 24 h, 10 µM (MTS viability assay [3]; HepG2 cells, HepG2, 24 h) of the same compound?
**A.** 90.9 ± 0.9%

**Q.** What about the viability at 24 h, 10 µM (MTS viability assay [3]; HepaRG cells) of the same compound?
**A.** 133 ± 12.2%

**Q.** What about the viability at 24 h, 10 µM (MTS viability assay [3]; Huh7 cells, Huh7, 24 h) of the same compound?
**A.** 97.9 ± 10.4%

**Q.** And the IC50 (HepG2)?
**A.** 178.4 ± 1 µM

**Q.** And the IC50 (HepaRG)?
**A.** > 200 µM

**Q.** And the IC50 (Huh7)?
**A.** > 200 µM

**Q.** And the viability at 24 h, 10 µM (MTS viability assay [4])?
**A.** 108 ± 3.2%

**Q.** And the IC50 (AML12)?
**A.** > 200 µM

**Q.** What about the melting point of the same compound?
**A.** 78 to 82 °C

**Q.** Which results are given for `CCCCCCCCC[C@@]1(O)C[C@@H]2C[C@H](O)CC[C@]2(C)C2CC[C@@]3(C)C(CC[C@@H]3[C@H](C)CCC(=O)O)C21` (stereo partly drawn) [2k, 3α,7α-Dihydroxy-7β-nonyl-5β-cholan-24-oic acid]?
**A.** remaining activity at 10 µM (human FXR [1]; [8]): 84.8 ± 1.8%; FXR activation, agonistic mode (in words) (human FXR [2]): significant inhibition of the FXR basal activation; CRE-luc activation compared to LCA (in words) (GPBAR1): weak or no ability to act as agonists of GPBAR1; viability at 24 h, 10 µM (MTS viability assay [3]; HepG2 cells, HepG2, 24 h): 79.8 ± 2.5%; viability at 24 h, 10 µM (MTS viability assay [3]; HepaRG cells): 71.6 ± 2.8%; viability at 24 h, 10 µM (MTS viability assay [3]; Huh7 cells, Huh7, 24 h): 118 ± 4.9%; IC50 (HepG2): ~10.9 µM; IC50 (HepaRG): 18.9 µM; IC50 (Huh7): 21.8 µM; viability at 24 h, 10 µM (MTS viability assay [4]): 68 ± 1.4%; IC50 (AML12): 12.5 µM; IC50 (various cell lines): ~15 µM; melting point: 78 to 80 °C

**Q.** For `C[C@H](CCC(=O)NCC(=O)O)[C@H]1CC[C@H]2[C@@H]3[C@@H](O)C[C@@H]4C[C@H](O)CC[C@]4(C)[C@H]3CC[C@]12C` [GUDCA], which IC50 (FXR [5]) is on record?
**A.** 77.2 µM

**Q.** For `C[C@H](CCC(=O)O)[C@H]1CC[C@H]2[C@@H]3CC[C@@H]4C[C@H](O)CC[C@]4(C)[C@H]3CC[C@]12C` [LCA, 3α-hydroxy-5β-cholan-24-oic acid, reference compound], which GLP-1 secretion (NCI-H716 cells) is on record?
**A.** stimulate GLP-1 secretion

**Q.** And the “GPBAR1 mRNA expression” value [6]?
**A.** stimulate

**Q.** Which IC50 (FXR [5]) does the source give for `C[C@H](CCC(=O)NCCS(=O)(=O)O)[C@H]1CC[C@H]2[C@@H]3[C@@H](O)C[C@@H]4C[C@H](O)CC[C@]4(C)[C@H]3CC[C@]12C` [TUDCA, tauro-ursodeoxycholic acid] here?
**A.** 75.1 µM

**Q.** With `C[C@H](CCC(=O)NCCS(=O)(=O)O)[C@H]1CC[C@H]2[C@@H]3[C@@H](O)[C@@H](O)[C@@H]4C[C@H](O)CC[C@]4(C)[C@H]3CC[C@]12C` [Tβ-MCA, tauro-β-muricholic acid, reference compound] as the compound, how does the “inhibition of FXR activation” value (human FXR [1]; at 100 µM, with 1 µM OCA) read?
**A.** 15%

**Q.** And the “relative response (%) to the model FXR ligand activation (set to be 100%), CDCA 20 µM” value (human FXR [1]; tested compound 40 µM, CDCA 20 µM, * = significant effect on cellular viability)?
**A.** 95.0±5.7%

**Q.** What about the “relative response (%) to the model FXR ligand activation (set to be 100%), GW4064 1 µM” value (human FXR [1]; tested compound 40 µM, GW4064 1 µM, * = significant effect on cellular viability) of the same compound?
**A.** 84.8±6.2%

**Q.** What about the IC50 (FXR [7]) of the same compound?
**A.** 40 µM

**Q.** With `C[C@H](CCC(=O)NCCS(=O)(=O)O)[C@H]1CC[C@H]2[C@@H]3[C@H](O)[C@@H](O)[C@@H]4C[C@H](O)CC[C@]4(C)[C@H]3CC[C@]12C` [tauro-α-MCA] as the compound, how does the IC50 (FXR [7]) read?
**A.** 28 µM
